Source: US20110008302A1, “Compositions and methods for immortalizing cells and screening for anti-cancer agents” (priority 2007, published 2011)

Columns and labels:
Ndy1 = assay: siRNA knock down in MEFs (Western blot, real time PCR of p16Ink4a, p19Arf, Ezh2, miR-101); format: cell-based, mouse; conditions: passage 3 MEFs, knock down of the short form of Ndy1
Procedure: At a time point four days after transfection cells were analyzed by Western blotting and total mRNA was collected and analyzed by real-time PCR with primers specific for p16^Ink4a and p19^Arf and primers specific for the long and short forms of Ndy1. (n=3)*p<0.05
MEFs overexpressing Ndy1 or Ndy2 and MEFs in which Ndy1 was knocked down with siRNA (1433-[…]-1454, SEQ ID NO: 1), were monitored for senescence by light microscopy and β-galactosidase staining and by cell counting at each passage. Transfection of siRNA was carried out using Lipofectamine 2000 (Invitrogen; Carlsbad, Calif.). Knockdown of Ndy1 was confirmed by Western blotting and real time RTPCR.
For siRNA. MEFs transfected with Ndy1 (1433-[…]-1454; SEQ ID NO: 51) or control siRNA (Dharmacon) were plated at 10^5 cells per 6 cm dish and 3-4 days later were harvested and analyzed (Pfau, R., et al. (2008) Proc Natl Acad Sci USA 105, 1907-12, incorporated herein by reference in its entirety). MEFs were transfected with the help of Lipofectamine 2000 (Invitrogen). To specifically knock down the short form of Ndy1 the following siRNA were used: 5′-[…]-′3 (SEQ ID NO: 52) which specifically targets the exon1 of the v2 isoform of Ndy1 (NM_013910). siRNAs for Ezh2 (a mix of two siRNAs form Applied Biosystems, #AM16708 siID #157427 and #157426) and Bmi-1 (Santa Cruz Biotechnologies, # sc-29815) were used in a final concentration of 80 nM.

MEFs [1] = assay: Oxidant/antioxidant treatment of MEFs, Ezh2 Western blot; format: cell-based, mouse; conditions: NAC 5 mM, Trolox 1 mM, H2O2 0.5 or 1 mM
Procedure: MEFs were treated with NAC (5 mM), Trolox (1 mM) or H2O2 (0.5 or 1 mM). Nuclear extracts were probed with antibodies specific for Ezh2 and for CREB, levels of which served as loading control.
(§1) TROLOX ((±)-6-Hydroxy-2,5,7,8-tetramethylchromane-2-carboxylic acid, (Sigma, catalog number 238813), NAC (N-Acetyl-L-cysteine, Sigma, catalog number A9165), H2O2 (Sigma, catalog number H-1009) and PD173074 (N-[2-[[4-(Diethylamino)butyl]amino]-6-(3,5-dimethoxyphenyl)pyrido[2,3-d]pyrimidin-7-yl]-N′-(1,1-dimethylethyl) urea, FGFR-1/3 inhibitor, TOCRIS Bioscience, catalog number 3044) were added directly in the culture at the indicated concentrations.

TCCSUP cells = assay: PD173074 treatment of TCCSUP cells (Western blot, real time RT-PCR); format: cell-based, human
Procedure: (§2) TCCSUP cells were treated with 0.5 μM PD173074 or carrier for 24 hours. (upper) Nuclear and cytoplasmic extracts were probed with antibodies specific for each of Ndy1, Ezh2 and phosphoERK. CREB and ERK levels served as loading controls. (lower) miR-101 levels were measured with real time RT-PCR; U6 small nuclear RNA levels were used as internal control. Data are expressed as mean±SD.
(§3) TCCSUP cells were transduced with an HA.Ndy1 overexpression construct or with the empty vector (EV), and were subsequently treated with 0.5 μM PD173074 or carrier for 24 hours. (upper) Nuclear extracts were probed with antibodies specific for each of HA-tag (exogenous Ndy1), Ndy1 (both endogenous and exogenous Ndy1) and Ezh2. CREB levels served as loading control. (lower) miR-101 levels were measured with real time RT-PCR; U6 small nuclear RNA levels were used as internal control. Data are expressed as mean±SD.
as §1
(§4) As a next step, FGF signaling was examined to determine importance for Ezh2 upregulation by Ndy1 in these cells. To address this issue, TCCSUP or WIDR cells, two of the above five cell lines, were treated with PD173074, an inhibitor of both FGFR1 and both FGFR3.
(§5) To examine if ectopic expression of Ndy1 reverses the effects of PD173074, namely miR-101 upregulation and Ezh2 downregulation, TCCSUP or WIDR cells were transduced with a pBabe-based retroviral Ndy1 overexpression construct. Cells transduced with the empty pBabe vector were used as control. The engineered cells were subsequently treated with PD173074. Nuclear lysates from these cells were probed with antibodies specific for each of HA-tag (exogenous Ndy1), Ndy1 (both exogenous and endogenous), Ezh2, and CREB. RNA isolated from the same cells was used to measure miR-101 levels with real time RT-PCR.

WIDR cells = assay: PD173074 treatment of WIDR cells (Western blot, real time RT-PCR); format: cell-based, human
Procedure: as §2, with “WIDR cell” for “TCCSUP cells”, “phosphoERK antibodies.” for “phosphoERK.”
as §3, with “WIDR” for “TCCSUP”, “or” for “or with”, “of with” for “of”, “controls.” for “control.”
as §1, §4, §5

MEFs [2] = assay: Stimulation of serum-starved MEFs with growth factors or serum (Ezh2, Ndy1, miR-101 levels); format: cell-based, mouse; conditions: serum-starved MEFs, 24 hours after stimulation; for Ezh2 expression: 20 ng/ml (serum 10%)
Procedure: MEFs were transfected with control siRNA and stimulated with serum (10%) for 1, 4, 12 and 18 hours. (upper) Nuclear extracts were probed with antibody specific for Ezh2 and for CREB, levels of which served as loading control. (lower) Ndy1 and Ezh2 mRNA levels were measured with real time RT-PCR; GAPDH mRNA levels were used as internal control. Data are expressed as mean±SD.
Serum starved MEFs were stimulated with each of FGF-2 (20 ng/ml), IGF-1 (20 ng/ml), PDGF (20 ng/ml), serum (10%), VEGF (20 ng/ml), EGF (20 ng/ml) or TNFα (50 ng/ml). Nuclear extracts were probed with antibody specific for Ezh2 and for CREB, levels of which served as loading control.
Data are expressed as mean±SD.
MEFs transfected with control siRNA were stimulated with FGF-2 for 1, 4, 12 or 18 hours. (upper) Nuclear extracts were probed with antibody specific for Ezh2. CREB levels served as loading control. (middle) Ndy1 and Ezh2 mRNA were measured with real time RT-PCR; GAPDH mRNA levels were used as internal control. Data are expressed as mean±SD. (lower) miR-101 levels were measured with real time RT-PCR; U6 small nuclear RNA levels were used as internal control. Data are expressed as mean±SD.
For stimulation with FGF-2 (Cell signalling, catalog number 8910), IGF-1 (R&D Systems, catalog number 791-MG), PDGF (Cell signalling, catalog number 9909), VEGF (R&D systems, catalog number 493-MV), EGF (R&D systems, catalog number 236-EG), TNFα (Cell Signalling, catalog number 2169), cells were serum starved for 16 hours and growth factors were added at a final concentration of 20 ng/ml each, for 24 hours.
To identify a pathway regulating Ezh2 expression via the Ndy1/miR-101 axis, serum-starved MEFs were stimulated with FGF-2, IGF-1, PDGF, EGF, VEGF, TNFα or serum and were examined for expression of Ezh2, Ndy1 and miR-101 before and 24 hours after stimulation. […] This was confirmed with analyses in which FGF-2 was used to stimulate serum-starved MEFs transfected with a control siRNA or siRNA for Ndy1 (FIG. 36).

[3] = TCCSUP cells overexpressing HA.Ndy1, 0.5 μM, 24 hours
[4] = WIDR cells overexpressing HA.Ndy1, 0.5 μM, 24 hours

Q: With “5′-CCGAGGACGACGACUAUGAUU-′3 [Ndy1 short form siRNA]” as the compound, how does the p16Ink4a (Ndy1) read?
A: did not upregulate significantly

Q: And the p19Arf (Ndy1)?
A: did not upregulate significantly

Q: Which Ezh2 protein levels (MEFs [1]) does the source give for `Cc1c(C)c2c(c(C)c1O)CCC(C)(C(=O)O)O2` (racemic) [Trolox, (±)-6-Hydroxy-2,5,7,8-tetramethylchromane-2-carboxylic acid] here?
A: no effect

Q: `OO` [H2O2] was tested. Which Ezh2 protein levels (MEFs [1]) did it give?
A: no effect

Q: With `CC(=O)N[C@@H](CS)C(=O)O` [NAC, N-Acetyl-L-cysteine] as the compound, how does the Ezh2 protein levels (MEFs [1]) read?
A: no effect

Q: With `CCN(CC)CCCCNc1ncc2cc(-c3cc(OC)cc(OC)c3)c(NC(=O)NC(C)(C)C)nc2n1` [PD173074, N-[2-[[4-(Diethylamino)butyl]amino]-6-(3,5-dimethoxyphenyl)pyrido[2,3-d]pyrimidin-7-yl]-N′-(1,1-dimethylethyl) urea] as the compound, how does the “FGF signaling (level of ERK1/2 phosphorylation)” value (TCCSUP cells; TCCSUP cells) read?
A: blocked

Q: What about the “effect on Ezh2” value (TCCSUP cells; [3]) of the same compound?
A: abrogated

Q: And the “effect on miR-101” value (TCCSUP cells; [3])?
A: abrogated

Q: What about the Ezh2 protein level (TCCSUP cells; TCCSUP cells, 0.5 μM, 24 hours) of the same compound?
A: downregulates

Q: What about the Ndy1 protein level (TCCSUP cells; TCCSUP cells, 0.5 μM, 24 hours) of the same compound?
A: downregulates

Q: What about the miR-101 levels (TCCSUP cells; TCCSUP cells, 0.5 μM, 24 hours) of the same compound?
A: upregulates

Q: And the “FGF signaling (level of ERK1/2 phosphorylation)” value (WIDR cells; WIDR cells)?
A: blocked

Q: And the “effect on Ezh2” value (WIDR cells; [4])?
A: abrogated

Q: What about the “effect on miR-101” value (WIDR cells; [4]) of the same compound?
A: abrogated

Q: What about the Ezh2 protein level (WIDR cells; WIDR cells, 0.5 μM, 24 hours) of the same compound?
A: downregulates

Q: And the Ndy1 protein level (WIDR cells; WIDR cells, 0.5 μM, 24 hours)?
A: downregulates

Q: What about the miR-101 levels (WIDR cells; WIDR cells, 0.5 μM, 24 hours) of the same compound?
A: upregulates

Q: Which “level at which Ezh2 expression is induced” value (MEFs [2]) does the source give for IGF-1: growth factor, R&D Systems here?
A: at both the RNA and protein levels

Q: What about the Ezh2 expression (MEFs [2]) of the same compound?
A: significantly upregulated

Q: What does the source list for PDGF?
A: level at which Ezh2 expression is induced (MEFs [2]): at both the RNA and protein levels; Ezh2 expression (MEFs [2]): significantly upregulated

Q: With VEGF as the compound, how does the “expression of Ndy1” value (MEFs [2]) read?
A: only moderate

Q: And the “level at which Ezh2 expression is induced” value (MEFs [2])?
A: primarily at the protein level

Q: And the miR-101 (MEFs [2])?
A: downregulating

Q: And the Ezh2 expression (MEFs [2])?
A: significantly upregulated
